Consider one compound from US20090156609A1, “TREATMENT OF POST-TRAUMATIC STRESS DISORDER WITH TETRAHYDROINDOLONE ARYLPIPERZAINE COMPOUNDS” (priority 2007, published 2009).

Each structure is given as a SMILES string. Where two headings read alike, the source gives them in different places.

The test has as its system Male C57 mice. In words: PCP-induced disruption of prepulse inhibition (PPI) of the startle response. It counts as in vivo. Conditions: for minimal effective dose: Mus musculus, 20 minutes prior to PCP 5 mg/kg IP, read-out: Effective Dose, Prepulse Inhibition Testing. From the text:
The phencyclidine (PCP)-induced disruption of pre-pulse inhibition (PPI) has been used to predict efficacy in cognitive impairment and other disorders. In this test, a weaker auditory prestimulus (prepulse) inhibits the reaction of an test organism to a subsequent strong startle stimulus (pulse). Normal PPI functioning in mammals is critical in filtering out irrelevant sensory information, an inhibitory process that is affected in patients with PTSD. A reduction of the cognitive/attention impairment produced in the PPI model can be used as an efficacy measure for compound candidate selection.
For testing of PPI, male C57 mice can be assigned to five dose groups of eight animals per group, and vehicle or test compound can then be administered orally (PO) or subcutaneously (SC) 20 minutes prior to intraperitoneal (IP) administration of vehicle or PCP (5 mg/kg). Ten minutes following PCP administration, the mice are placed into Hamilton-Kinder startle chambers and evaluation of pre-pulse inhibition procedure is performed. Following a five-minute acclimatization period with background white noise (65 decibels), mice were exposed to five different trial types. Trials were presented […] in a quasi-random order, with randomized 5 to 25 second inter-trial intervals. Trials were: stimulus only trial (120 decibel white noise, 50 ms stimulus); two different prepulse+pulse trials in which a 20 ms 5 decibel, or 10 decibel stimuli above a 65 decibel background preceded the 120 decibel pulse by 120 ms; a 10 decibel prepulse without a 120 decibel pulse; and a no stimulus trial, in which only the background noise was presented.
Compounds which are observed to reduce and/or reverse PCP-induced impairment can be selected as candidates for further evaluation. Such reduction is also indicative of memory enhancement, which is also a positive indicator for further development.
Male C57 mice were assigned to five dose groups of eight animals per group, and vehicle or a test compound was administered orally or subcutaneously 20 minutes prior to intraperitoneal administration of vehicle or PCP (5 mg/kg). Ten minutes following PCP administration, the mice were placed into Kinder Scientific startle chambers (Kinder Scientific, Poway, Calif.) and pre-pulse inhibition was evaluated. Following a five-minute acclimatization period with background white noise (65 dB), mice were exposed to five different trial types. Trials were presented in a quasi-random order, with randomized 5 to 25 second inter-trial intervals. The five different trials (presented 10 times each were): stimulus only trial (120 dB white noise, 50 ms stimulus); two different prepulse+pulse trials in which a 20 ms 5 dB or 10 dB stimulus above a 65 dB background preceded the 120 dB pulse by 120 ms; a 10 dB prepulse without a 120 dB pulse; and a no stimulus trial, in which only the background noise was presented.

In the case of `O=C1CCCc2c1ccn2CCN1CCN(c2cccc(Cl)c2)CC1` [Compound A, 1-{2-[4-(3-Chlorophenyl)piperazin-1-yl]ethyl}-1,5,6,7-tetrahydroindol-4-one], the minimal effective dose reads like this: (sc, subcutaneous) 3 mg/kg; (oral) 1 mg/kg. Also, the “prepulse inhibition versus control levels (FIG. 1)” value (doses of 10 mg/kg, PCP-induced disruption) is listed as “inhibition was returned to control levels”. The “minimum effective dose, Prepulse Inhibition (PPI)” value (reversal of PCP-induced disruption, route not given) worked out at 3 mg/kg.
